“Also recorded” adds a separate entry of the source. Where a SMILES comes first, the peptide text is derived from it. [ ]: non-standard residue; d: D form. Dmt = Cc1cc(O)cc(C)c1C[C@H](N)C(=O)O
Columns and labels:
N2A cells [1] = test: Intracellular ROS (DCF fluorescence) in cells treated with tBHP; format: cell-based, murine; conditions: for EC50, reduction of intracellular ROS / intracellular ROS: tBHP 0.5 or 1 mM 40 min, then peptide 4 hr
Procedure: FIG. 22A-22C. […] (A) N2A cells were loaded with DCFDA, and then exposed to 100 μM tBHP alone, or with SS-31. Intracellular ROS was quantified by the formation of fluorescent DCF. Results shown are mean values (n=3). (B)(a-c) N2A cells were plated in glass bottom dishes and treated with 50 μM tBHP, alone or with 1 nM SS-31, for 6 h. Cells were loaded with DCFDA (10 μM) and imaged by confocal laser scanning microscopy using ex/em of 495/525 nm. (C) Effect of 1 nM SS-31 in reducing intracellular ROS induced by 50 μM tBHP (*P<0.001 compared to untreated cells; *P<0.05 compared to tBHP alone).
(§1) Cells were washed twice and replaced with medium alone or medium containing varying concentrations of SS-02 or SS-31 for 4 hr. Intracellular ROS was measured by carboxy-H2DCFDA (Molecular Probes, Portland, Oreg.). Cell death was assessed by a cell proliferation assay (MTS assay, Promega, Madison, Wis.).
Intracellular ROS was evaluated using the fluorescent probe DCFH-DA (5-(and -6)-carboxy-2′,7′-dichlorodihydrofluorescein diacetate). DCFH-DA enters cells passively and is then deacetylated to nonfluorescent DCFH. DCFH reacts with ROS to form DCF, the fluorescent product. N2A cells in 96 sell plates were washed with HBSS and loaded with 10 μM of DCFDA for 30 min. […]. at 37° C. Cells were washed 3 times with BSS and exposed to 0.1 mM of t-BHP, alone or with SS-31. The oxidation of DCF was monitored in real time by a fluorescence microplate reader (Molecular Devices) using 485 nm for excitation and 530 nm for emission.
N2A cells in glass bottom dish were treated with 0.1 mM t-BHP, alone or with 1 nM SS-31, for 6 h. Cells were then loaded with 10 μm of dichlorofluorescin (ex/em=485/530) for 30 min at 37° C., 5% CO2. Then cells were subjected 3 times wash with HBSS and stained with 20 nM of Mitotracker TMRM (ex/em=550/575 nm) for 15 min at 37° C. and examined by confocal laser scanning microscopy.

[2] = system: isolated guinea pig hearts; test: HNE-modified proteins in isolated hearts, brief ischemia-reperfusion (Langendorff); conditions: 100 nM SS-02, 1 nM SS-31
Procedure: Isolated guinea pig hearts were perfused in a retrograde manner in a Langendorff apparatus and subjected to various intervals of ischemia-reperfusion. Hearts were then fixed immediately and embedded in paraffin. Immunohistochemical analysis of 4-hydroxy-2-nonenol (HNE)-modified proteins in the paraffin sections was carried out using an anti-HNE antibody.
(A) Immunohistochemical analysis of 4-hydroxy-2-nonenol (HNE)-modified proteins in paraffin sections from guinea pig hearts aerobically perfused 30 min with (a) buffer; (b) 100 nM SS-02; (c) 100 nM SS-20 and (d) 1 nM SS-31, then subjected to 30 min ischemia and reperfused for 90 min with same peptides. Tissue slices were incubated with […] antibody. (e) Background control: staining without primary antibody.
(B) Immunohistochemical analysis of HNE-modified proteins in paraffin sections from guinea pig hearts aerobically perfused 30 min with buffer; then subjected to 30 min ischemia and reperfused with (a) buffer; (b) 100 nM SS-02; (c) 100 nM SS-20 and (d) 1 nM SS-31 for 90 min with same peptides. Tissue slices were incubated with anti-HNE antibody. (e) Background control staining without primary antibody.

[3] = Linoleic acid peroxidation induced by ABAP (conjugated dienes); conditions: for rate of linoleic acid peroxidation (slope of diene formation): peptides 100 μM
[4] = system: Human LDL (low density lipoprotein); test: LDL oxidation induced by CuSO4 (conjugated dienes); format: biochemical; conditions: for rate of LDL oxidation (rate of formation of conjugated dienes): peptides 100 μM
Procedure: Human LDL (low density lipoprotein) was prepared fresh from stored plasma. LDL oxidation was induced catalytically by the addition of […] CuSO4, and the formation of conjugated dienes was monitored at […] for 5 h at 37° C. (B. Moosmann and C. Behl, Mol Pharmacol., 61, 260-268 (2002)).

N2A cells [5] = test: Cell viability, MTS assay, cells treated with tBHP; format: cell-based, murine; conditions: for EC50, increase of cell survival / cell survival (MTS): tBHP 0.5 or 1 mM 40 min, then peptide 4 hr
Procedure: as §1
Neuronal N2A and SH-SY5Y cells were plated in 96-well plate at a density of 1×10^4/well and allowed to grow for 2 days before treatment with t-butyl hydroperoxide (tBHP) (0.05-0.1 mM) with or without SS-31 (10^−12 M to 10^−9 M for 24 h. Cell death was assessed by a cell proliferation assay (MTS assay, Promega, Madison, Wis.).

[6] = system: isolated mouse liver mitochondria; test: H2O2 production by isolated mitochondria, luminol chemiluminescence; format: biochemical; conditions: for amount of H2O2 generated (AUC over 20 min): spontaneous, SS peptides 100 μM
Procedure: Because mitochondria are a major source of ROS production, the effect of SS-02 on H2O2 formation in isolated mitochondria under basal conditions as well as after treatment with antimycin, a complex III inhibitor was examined. Livers were harvested from mice and homogenized in ice-cold buffer and centrifuged at 13800×g for 10 m. The pellet was washed once and then re-suspended in 0.3 ml of wash butter and placed on ice until use H2O2 was measured using luminol chemiluminescence as described previously (Y. Li, H. Zhu, M. A. Trush, Biochim. Biophys. Acta 1428, 1-12 (1999)). 0.1 mg mitochondrial protein was added to 0.5 ml potassium phosphate buffer (100 mM, pH 8.0) in the absence or presence of SS peptides (100 μM). 25 mM luminol and 0.7 IU horseradish peroxidase were added, and chemilumunescence was monitored with a Chronolog Model 560 aggregometer (Havertown, Pa.) for 20 min at 37° C. The amount of H2O2 produced was quantified as the area under the curve (AUC) over 20 min, and all data were normalized to AUC produced by mitochondria alone.
H2O2 was measured using luminol chemiluminescence as described previously (Y, Li, H. Zhu, M. A. Trush, Biochim. Biophys. Acta 1428, 1-12 (1999)). 0.1 mg mitochondrial protein was added to 0.5 ml potassium phosphate buffer (100 mM, pH 8.0) in the absence or presence of SS-31. 25 mM luminol and 0.7 IU horseradish peroxidase were added, and chemilumunescence was monitored with a Chronolog Model 560 aggregometer (Havertown, Pa.) for 20 min at 37° C. The amount of H2O2 produced was quantified as the area under the curve (AUC) over 20 min, and all data were normalized to AUC produced by mitochondria alone.

[7] = peptide only during 90 min reperfusion
[8] = peptide perfused 30 min before 30 min ischemia and during 90 min reperfusion

Compound | EC50, reduction of intracellular ROS (N2A cells [1]) | intracellular ROS (N2A cells [1]) | lipid peroxidation (HNE-modified proteins) [2, 7] | lipid peroxidation (HNE-modified proteins) [2, 8] | rate of linoleic acid peroxidation (slope of diene formation) [3] | peroxidation of linoleic acid ([3]; varying concentrations) | rate of LDL oxidation (rate of formation of conjugated dienes) [4] | rate of LDL oxidation ([4]; varying concentrations, 10 mM CuSO4) | EC50, increase of cell survival (N2A cells [5]) | cell survival (MTS) (N2A cells [5]) | amount of H2O2 generated (AUC over 20 min) [6] | DCF fluorescence (fluorescent microscopy) (N2A cells [1]; 50 μM tBHP, 1 nM SS-31, 6 h) | reduction of ROS production (N2A cells [1]; 100 μM tBHP, 1 nM SS-31) | rate of ROS accumulation/production (N2A cells [1]; 0.1 mM (100 μM) t-BHP, over 4 h) | ROS accumulation (DCF fluorescence, confocal) (N2A cells [1]; 0.1 mM t-BHP, 1 nM SS-31, 6 h) | concentration achieving complete protection against t-BHP (N2A cells [5]; t-BHP 0.05-0.1 mM, 24 h) | t-BHP-induced cytotoxicity (N2A cells [5]; t-BHP 0.05-0.1 mM, 24 h, concurrent treatment) | production of H2O2 induced by antimycin ([6]; dose response) | spontaneous production of H2O2 ([6]; dose response)
2′,6′-Dmt-Arg-Phe-Lys-NH2 [SS-02] | nM range | dose-dependently reduced intracellular ROS | reduced lipid peroxidation | reduced lipid peroxidation | reduced the rate of linoleic acid peroxidation | dose-dependently inhibited | reduced rate of LDL oxidation | dose-dependently inhibited | nM range | increased cell survival | significantly reduced |  |  |  |  |  |  |  | 
Cc1cc(O)cc(C)c1C[C@H](NC(=O)[C@H](N)CCCNC(=N)N)C(=O)N[C@@H](CCCCN)C(=O)N[C@@H](Cc1ccccc1)C(N)=O [SS-31, D-Arg-2′6′-Dmt-Lys-Phe-NH2] (H-[dR][Dmt]KF-NH2; N-terminus assumed) | nM range | dose-dependently reduced intracellular ROS | reduced lipid peroxidation | reduced lipid peroxidation | reduced the rate of linoleic acid peroxidation |  | reduced rate of LDL oxidation |  | nM range | increased cell survival | significantly reduced | significantly reduced | > 50% | dose-dependently inhibited; also recorded: dose-dependently reduced | reduced ROS accumulation | 1 nM | dose-dependent reduction | dose-dependently reduced | dose-dependently reduced

Reference: patent US9950026B2, “Methods for reducing oxidative damage” (Cornell Research Foundation, Inc., priority 2004, dated 2018)
